Counter-ions that a name gives are not always drawn.
Assays:
[1] = test system: Rats; assay: Tardive dyskinesia test (vacuous chewing movements and tongue protrusions); assay type: in vivo, rat; details: 10 mg/kg, p.o. (5 mg twice a day) for 4 weeks
Method: Rats weighing 200-230 g were acclimatized to the plexiglass observation cages (30×20×30 cm) equipped with mirrors for 5 min. After acclimatization, basal vacuous chewing movements (VCMs) and tongue protrusions (TPs) of the rats were quantified manually for 5 min. Rats were randomized based on the basal readings. Rats received a single dose of sesame oil (vehicle treatment) or haloperidol decanoate (38 mg/kg, i.m. positive control). Example-2, 10 mg/kg, p.o. ([…]) was administered for 4 weeks. VCMs and TPs were scored on weekly basis for 4 weeks. Tardive dyskinesia is a side effect of antipsychotic medications.

[2] = target: T1, recombinant human 5-HT2A receptor (Homo sapiens, UniProt P28223); assay: Determination of Kb at 5-HT2A receptor, pCRE-Luc reporter gene assay in CHO cells; assay type: cell-based
T1 construct: expressed in transfected cells
T1 sequence (P28223 whole entry): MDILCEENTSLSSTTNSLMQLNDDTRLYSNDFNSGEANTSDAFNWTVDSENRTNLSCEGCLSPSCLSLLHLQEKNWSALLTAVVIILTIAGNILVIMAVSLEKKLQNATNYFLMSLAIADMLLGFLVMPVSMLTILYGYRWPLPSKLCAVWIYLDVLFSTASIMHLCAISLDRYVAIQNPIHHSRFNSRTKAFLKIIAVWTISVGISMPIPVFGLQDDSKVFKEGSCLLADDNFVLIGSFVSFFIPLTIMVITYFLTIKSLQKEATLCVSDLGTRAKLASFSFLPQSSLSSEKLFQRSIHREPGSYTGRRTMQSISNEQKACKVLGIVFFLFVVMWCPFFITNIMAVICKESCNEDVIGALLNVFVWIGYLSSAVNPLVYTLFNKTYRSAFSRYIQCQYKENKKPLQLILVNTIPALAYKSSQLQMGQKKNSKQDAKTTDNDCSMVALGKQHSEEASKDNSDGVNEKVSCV
Method: (§1) A stable CHO cell line expressing recombinant human 5-HT2A receptor and pCRE-Luc reporter system was used for cell-based assay. The assay offers a non-radioactive based approach to determine binding of a compound to GPCRs. In this specific assay, the level of intracellular cAMP which is modulated by activation or inhibition of the receptor was measured. The recombinant cells harbor luciferase reporter gene under the control of cAMP response element.
(§2) The above cells were grown in 96 well clear bottom white plates in Hams F12 medium containing 10% fetal bovine serum (FBS). Prior to the addition of compounds or standard agonist, cells were serum starved overnight. Increasing concentrations of test compound were added along with 1 μM of serotonin in Opti-MEM medium to the cells. The incubation was continued at 37° C. in CO2 incubator for 4 hours. Medium was removed and cells were washed with phosphate buffered saline. The cells were lysed and luciferase activity was measured in a Luminometer. Luminescence units were plotted against the compound concentrations using GraphPad Prism software. EC50 values of the compounds were defined as the concentration required in reducing the luciferase activity by 50%. The Kb values were calculated by feeding the concentration of agonist used in the assay and its EC50 value in the same software.

[3] = test system: Male Swiss albino mice; assay: Forced swim test; assay type: in vivo, mouse; details: 10 mg/kg, p.o., 30 min after treatment
Method: Male Swiss albino mice having weight range of 30-40 g were used. Mice were dosed with vehicle or test compound. Thirty min after treatment, animals were individually placed inside the plexiglass cylinder (40 cm height×17 cm width) for 6 min. The depth of water (24±1° C.) was maintained at 18 cm. The immobility of the mice during the last 4 min were recorded in the 6 min trial. Forced swim test assesses antidepressant like effects of test compounds.

[4] = target: T2, recombinant human 5-HT1A receptor (Homo sapiens, UniProt P08908); assay: Determination of Kb at 5-HT1A receptor, pCRE-Luc reporter gene assay in CHO cells; assay type: cell-based
T2 construct: expressed in transfected cells
T2 sequence (P08908 1-422): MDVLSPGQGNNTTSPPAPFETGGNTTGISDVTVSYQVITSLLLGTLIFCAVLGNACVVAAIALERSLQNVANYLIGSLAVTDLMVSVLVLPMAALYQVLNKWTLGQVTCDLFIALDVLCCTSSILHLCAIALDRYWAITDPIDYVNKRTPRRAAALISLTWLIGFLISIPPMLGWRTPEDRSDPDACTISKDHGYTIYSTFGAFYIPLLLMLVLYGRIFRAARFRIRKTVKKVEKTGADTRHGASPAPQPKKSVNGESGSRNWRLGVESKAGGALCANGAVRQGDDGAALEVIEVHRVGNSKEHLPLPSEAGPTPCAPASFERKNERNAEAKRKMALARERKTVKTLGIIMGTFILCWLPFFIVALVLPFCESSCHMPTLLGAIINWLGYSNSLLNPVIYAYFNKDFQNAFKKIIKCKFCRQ
Method: as §1, with “human 5-HT1A” for “human 5-HT2A”, “receptor is” for “receptor was”
as §2, with “U92016A and 1 μM of forskolin” for “serotonin”

[5] = test system: Male Wistar rats; assay: MK-801-induced amnesia in novel object recognition task (NORT); assay type: in vivo, rat; details: 0.3 mg/kg, p.o., MK-801 0.03 mg/kg, i.p.
Method: Male Wistar rats of 230-280 g body weight were used. Rats were weighed and randomized according to their body weights. On day 1, animals were habituated to the arenas for 45 min. On day 2, 30 min before the trial-1 animals were administered with vehicle (WFI) or test compound and 20 min before the trial-1 the animals were administered with MK-801 0.03 mg/kg, i.p. Trial-1 is familiarization task in the arena with two similar kind of silver color flasks of same dimensions for a period of 3 min. After an inter trial interval of 90 min animals were subjected to recognition task in the arena with one silver and one violet bottle for a period of 3 min. Time spent by the rats with either familiar or novel objects was noted and analyzed. MK-801-induced amnesia in novel object recognition task models cognitive deficits associated with schizophrenia.

Q: Which “Inference, tardive dyskinesia like symptoms (VCMs and TPs)” value [1] does the source give for O=C1C[C@@H]2CCCN2C(=O)N1CCCCN1CCN(c2nsc3ccccc23)CC1 [Example 2, 2-[4-(4-Benzo[d]isothiazol-3-yl-piperazin-1-yl)-butyl]-tetrahydro-pyrrolo[1,2-c]pyrimidine-1,3-dione oxalate] here?
A: Its value is “Example-2 did not show tardive”.

Q: What about the “agonist activity at human recombinant 5-HT2A receptor” value ([2]; pCRE-Luc reporter gene assay) of the same molecule?
A: The value was “no detectable agonist activity”.

Q: What about the “antagonistic activity at human recombinant 5-HT2A receptor” value ([2]; pCRE-Luc reporter gene assay) of the same molecule?
A: Its value is “antagonistic activity”.

Q: What about the Kb ([2]; with 1 μM serotonin, luciferase readout) of the same molecule?
A: The Kb was 8 nM.

Q: And the “Inference, mice forced swim test” value [3]?
A: Its value is “Active”.

Q: And the “agonist activity at human recombinant 5-HT1A receptor” value ([4]; pCRE-Luc reporter gene assay)?
A: The value was “no detectable agonist activity”.

Q: And the “antagonistic activity at human recombinant 5-HT1A receptor” value ([4]; pCRE-Luc reporter gene assay)?
A: Its value is “antagonistic activity”.

Q: And the Kb ([4]; with 1 μM U92016A and 1 μM forskolin, luciferase readout)?
A: Its Kb is 2.3 nM.

Q: What about the “Inference, MK-801-induced amnesia in NORT” value [5] of the same molecule?
A: The value was “Active”.

— US12391698B2, “Substituted piperidines and piperazines and methods for the treatment of CNS disorders” (SUVEN LIFE SCIENCES LIMITED, priority 2022, dated 2025)
